Results: patent US20140030368A1, “COMPOSITION FOR PREVENTING OR TREATING A RESPIRATORY DISEASE CONTAINING A MIXED HERBAL EXTRACT OF CNIDIUM OFFICINALE ROOT AND POLYGONI CUSPIDATI ROOT” (WHANIN PHARMACEUTICAL CO., LTD., priority 2011, published 2014)

How the values were obtained:
[1] = Test for expectorant activity (phenol red in trachea); type: in vivo, mice
Experimental: Using the method of Engler et al. ([…]. Pharmacol. […] Jian-Hua Shang et al, J. Ethnopharmacology, 129, 293-298, 2010), the expectorant activity of the extract of the present invention was measured. […] Orientbio, Korea) were divided into groups, each consisting of 10 mice. […] After 30 minutes, the mice were subjected to cervical dislocation, and blood was discharged from the abdominal aorta, after which the trachea was completely excised. The isolated trachea was cold-stored in 1 ml of physiological saline.

[2] = test system: croton oil-induced ear edema; assay: Croton oil-induced ear edema; type: in vivo, mice; details: oral dose 100 mg/kg
Experimental: When croton oil is applied to the skin, an inflammatory reaction occurs to produce redness, a swelling and a blister on the applied surface (Archives of Pharmacal Research, 1993, 16[1], 18-24).
As experimental animals, male ICR mice (weighed 20-23 g; Orientbio, Korea) were divided into groups, each consisting of 10 mice. Each of the test samples and the comparative drug COX-2 inhibitor Celecoxib (100 mg/kg, Pfizer) was orally administered into the mice which have been fasted for one day, and after 1 hour, a solution of 3% croton oil in acetone was applied uniformly to the inner and outer sides of the right ear of each mouse to induce ear edema.

[3] = test system: citric acid-induced coughing; assay: Test for antitussive activity (citric acid-induced coughing); type: in vivo, guinea pigs; details: Oral dose 50 mg/kg
Experimental: In order to evaluate the antitussive activity of the extract of the present invention (American Journal of Respiratory and Critical Care Medicine, 1998, 158 [1], 42-48), the extract of Example 2 was administered into guinea pigs, and then citric acid was sprayed into the guinea pig to induce coughing, after which the number of coughs was measured. Citric acid is frequently used in studies on the activity of airway sensory nerves, and the inhalation of citric acid causes bronchoconstriction, nasal stimulation, coughing, bronchial hypersensitivity and the like.
Specifically, as experimental animals, Hartely male guinea pigs (weighed 350-400 g; Orientbio, Korea) were divided into groups, each consisting of 10-12 animals. Each of the extract of Example 2 and 50 mg/kg of the comparative drug theobromine (Sigma) was administered orally into the grouped mice which have been fasted for one day. After 1 hour, 0.3M citric acid as a cough inducer was sprayed into the animals to induce coughing.

[4] = target: T1, 5-lipoxygenase (Rattus norvegicus, UniProt P12527); assay: 5-Lipoxygenase inhibitory activity (leukotriene production in RBL-1 cells, cysteinyl leukotriene EIA); type: cell-based; details: RBL-1, read-out: 5-lipoxygenase inhibition rate(%)
T1 construct: rat basophilic leukemia cells (RBL-1) were stabilized using serum-free RPMI medium; endogenous in cells; host or cells: RBL-1 (rat basophilic leukemia cells)
T1 sequence (P12527 whole entry): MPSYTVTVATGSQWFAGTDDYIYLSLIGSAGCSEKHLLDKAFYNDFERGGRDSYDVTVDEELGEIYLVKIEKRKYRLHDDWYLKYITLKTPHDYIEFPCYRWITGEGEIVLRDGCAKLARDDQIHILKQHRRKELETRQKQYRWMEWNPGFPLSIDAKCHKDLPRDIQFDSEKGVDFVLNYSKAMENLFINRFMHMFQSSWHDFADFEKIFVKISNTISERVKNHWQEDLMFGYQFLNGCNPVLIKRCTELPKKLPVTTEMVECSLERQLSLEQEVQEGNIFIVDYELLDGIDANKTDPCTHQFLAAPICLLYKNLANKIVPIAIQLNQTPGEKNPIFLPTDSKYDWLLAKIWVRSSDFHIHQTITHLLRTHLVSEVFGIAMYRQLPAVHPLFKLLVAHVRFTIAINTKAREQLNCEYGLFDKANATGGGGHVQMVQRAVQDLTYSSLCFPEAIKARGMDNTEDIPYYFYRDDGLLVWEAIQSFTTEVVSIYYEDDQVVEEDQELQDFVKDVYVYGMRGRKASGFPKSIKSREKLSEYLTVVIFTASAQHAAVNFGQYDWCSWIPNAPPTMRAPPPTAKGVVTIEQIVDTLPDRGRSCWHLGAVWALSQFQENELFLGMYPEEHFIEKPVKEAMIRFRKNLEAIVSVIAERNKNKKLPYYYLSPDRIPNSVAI
Experimental: Specifically, rat basophilic leukemia cells (RBL-1) were stabilized using serum-free RPMI medium at 37° C., and each of the extracts and arachidonic acid as a substrate were added thereto and incubated for 15 minutes to produce leukotriene. The amount of the produced leukotriene was measured using a cysteinyl leukotriene EIA kit. As comparative drugs, the 5-lipoxygenase inhibitors zileuton and montelukast were used.

[5] = test system: extracted bronchi of guinea pigs; assay: Test for bronchoconstriction (in vitro), ovalbumin-induced constriction of isolated sensitized bronchi; details: Cavia porcellus, read-out: Bronchoconstriction inhibition rate(%)
Experimental: The comparative drug rolipram was used at a concentration of 20 μM, and each of the extracts was used at a concentration of 0.3 mg/ml.
Specifically, Hartely male guinea pigs (400-500 g, BGI, Korea) were sensitized by intravenous injection with 2 ml/kg of anti-ovalbumin anti-serum. At 48 hours after sensitization, the guinea pigs were sacrificed and the bronchi were extracted therefrom. Then, other tissues attached to the bronchi were removed using a tyrode solution, and each of the bronchi was cut in a ring shape containing 2-3 cartilages. Then, the cartilage portion of the ring was excised while the bronchial muscle was preserved. Then, a string was connected to both sides of each bronchus which was then suspended in an organ bath and stabilized for a predetermined time. Then, 10 μg/ml of carbachol was added to induce the maximum constriction of the bronchi which were then washed with a tyrode solution and stabilized. Next, 5 μM of indomethacin was added to each bronchus, and after 1 minute, each of the extracts was added to each bronchi, and after 5 minutes, 20 μg/ml of ovalbumin was added to induce bronchoconstriction. […] The relaxation of the bronchi was measured using a physiological activity meter connected (powerlab 8/30, AD Instrument) with a force transducer (WPI).

[6] = test system: leukocytes in the bronchoalveolar lavage; assay: Test for inhibition of bronchial inflammation, leukocytes in bronchoalveolar lavage of ovalbumin-sensitized mice; type: in vivo; details: oral 10 mg/kg b.i.d.
Experimental: Specifically, BALB/c female mice (6.5 weeks old, SLC, Japan) were sensitized by intraperitoneal administration of 0.2 ml of a 1:1 mixture of 10 μg of ovalbumin (OVA, Sigma) and 4 mg of aluminum hydroxide (Alum, Pierce) at days 0, 7 and 14. At 8 days and 10 days after the final sensitization, aerosol prepared from 1.0% ovalbumin using high-pressure compressed air was sprayed into the mice for 50 minutes to induce airway inflammation. As a comparative drug, 10 mg/kg of rolipram (Sigma) was used. The comparative drug and the test materials were orally administered twice (morning and evening) a day during a period ranging from 21 days to 23 days after the first sensitization. At 24 hours after the final induction of inflammation, the bronchoalveoli were laved with 1.5 ml of phosphate buffered saline (pH 7.2) to collect a bronchoalveolar lavage. The number of leukocytes in the lavage was counted using a hematology analyzer (Drew Scientific Inc., HEMAVET HV950FS, M-950HV).

[Cl-].[Cl-].[Mg+2] [Magnesium chloride]
Expectorant activity (%) ([1]; Oral dose 500 mg/kg): 33%

Cc1ccc(-c2cc(C(F)(F)F)nn2-c2ccc(S(N)(=O)=O)cc2)cc1 [Celecoxib]
Ear edema inhibition rate (%) [2]: 17%

Nc1c(Br)cc(Br)cc1CN[C@H]1CC[C@H](O)CC1 [Ambroxol, ambroxol]
Expectorant activity (%) ([1]; Oral dose 250 mg/kg): 27%

Cn1cnc2c1c(=O)[nH]c(=O)n2C [theobromine]
Cough inhibition rate (%) [3]: 36%

CC(c1cc2ccccc2s1)N(O)C(N)=O (stereo not shown) [Zileuton, zileuton]
inhibition at 1 µM [4]: 63%

COc1ccc(C2CNC(=O)C2)cc1OC1CCCC1 (stereo not shown) [rolipram]
inhibition at 20 µM [5]: 62% | Inhibition rate (%) of pulmonary bronchial inflammation [6]: 22%
